Assays:
[1] = test system: ZR-75-1 breast cancer cells; assay: ZR-75-1 cell proliferation (cell count); type: cell-based; conditions: 6 days, dose response
Description: Cells were plated at varying densities in growth medium in 96 well plates. Cells were treated as indicated in the figures and viability measured using sulforhodamine B (SRB) or the number of cells counted using Coulter counter.
Although a few previous reports have shown that MCF-7 cells express AR and respond to AR ligands (Buchanan et al. (2005) Cancer Res 65, 8487-8496), the MCF-7 cell line clone in the study lacks or minimally expresses AR, which is in concordance with other reports (De Amicis et al. (2010) Breast Cancer Res Treat 121, 1-11).

[2] = test system: GAR15-13 PDX; assay: GAR15-13 palbociclib-resistant PDX in NSG mice; conditions: mouse, in vivo
Source text: Data were presented as mean values±s.e.m. […] Data represented the mean±s.e.m. of four replicate cell culture wells per condition. […] P values are indicated by gray asterisks, where ****P<0.0001 for all highlighted comparisons.
Tissue samples from an ER-positive, PR-negative, and HER2-negative (ER^+, PR^−, HER2^−) patient that progressed on (i.e., was resistant to) palbociclib were implanted into animal (NSG mice) models and grown as a patient-derived xenograft (PDX). […] This human tumor model also had amplification of the cyclin D1 (CCND1^Amp) gene which has been implicated as a driver of therapeutic resistance to CDKi. […] This is also observed in other models tested in vitro including a palbociclib resistant MCF-7 (MCF7 palbo^R) line (FIG. 44B).

[3] = test system: HCC-38 triple negative breast cancer cells; assay: SRB cell viability, HCC-38 cells infected with AR adenovirus; type: cell-based; conditions: 3 days
Description: The SRB assay was used to determine cell number during cytotoxocity experiments. The following protocol was used: • 1. Cells were detached with 0.25% trypsin. • 2. Experimental cultures were cultured in 96-well microtiter plates (200 μL growth medium per well; 1,000-200,000 cells per well). • 3. Cultures were fixed with 50 μL 50% TCA (4° C.). (see cell fixation protocol for details). • 4. Fixed cells were stained with 50 μL 0.4% (wt/vol) SRB in 1% acetic acid for 10 minutes. • 5. SRB was removed and the cultures were quickly* rinsed 5 times with 1% acetic acid to remove unbound dye.** • 6. Cultures were air-dried overnight until there was no visible moisture. • 7. The cellular protein-bound SRB was dissolved with 200 μL unbuffered Tris base (10 mM, pH 10.5) for 30 minutes on a rocking platform shaker. • 8. Absorbance was read at 540 nm. * quickly performing rinsing process was to prevent desorption of protein-bound SRB ** completely removed residual wash solution by sharply flicking plates over sink.
The following protocol was used for fixing cells: • a. 50 μL of 50% TCA (4° C.) was gently layered on the top of growth medium in each well to make a final TCA concentration of 10%. • b. Cultures were incubated at 4° C. for 1 hour. • c. Cultures were washed 5 times with tap water to remove TCA, growth medium, low-molecular-weight metabolites, and serum protein. • d. […]

[4] = test system: BR-0001 tumors; assay: Microarray and AR ChIP-Seq of BR-0001 tumors; type: in vivo, mice
Description: Chromatin Immunoprecipitation Assay (ChIP). Proteins were cross-linked by incubation with 1% formaldehyde (final concentration) at 37° C. for 10 min. Tumors were homogenized using a probe hand-held homogenizer. The cells were washed with 1×PBS twice, scraped in 1 mL of PBS containing protease inhibitors ([[…] each of aprotinin, leupeptin, antipain, benzamidine HCl, and pepstatin/mL], 0.2 mM phenylmethylsulfonyl fluoride, and 1 mM sodium vanadate), pelleted, and resuspended in SDS lysis buffer (1% SDS, 10 mM EDTA, 50 mM Tris-HCl [pH 8.1]).
After lysis on ice for 10 min, the cell extract was sonicated (Branson sonifier 250) in a cold room eight times for 10 s each at constant duty cycle, with an output of 3 and with incubation on ice after every sonication. The debris was pelleted at 13,000 rpm for 10 min at 4° C., and the supernatant was diluted 10-fold with ChIP dilution buffer (0.01% SDS, 1.1% Triton X-100, 1.2 mM EDTA, 16.7 mM Tris HCl [pH 8.1], 167 mM NaCl). The proteins were precleared with 50 μL of 1:1 protein A-Sepharose beads in TE. […]
In the gene expression study described above, RNA was isolated from the BR-0001 TNBC tumors and the expression of genes in the entire genome was measured by microarray (Affymetrix, ST2.0 array). […]

## C[C@](O)(COc1ccc(C#N)cc1)C(=O)Nc1ccc(C#N)c(C(F)(F)F)c1 [Formula IX, (S)—N-(4-Cyano-3-(trifluoromethyl)phenyl)-3-(4-cyanophenoxy)-2-hydroxy-2-methylpropanamide]
[1]
  proliferation: significantly reduced dose dependently
[2]
  tumor growth response: responsive
[3]
  cell growth: inhibited
[4]; mouse, in vivo
  AR-occupied promoters with the gene up-regulated: 20%
[4]; −5 kb to +1 kb
  promoters to which AR was recruited: 176 promoters

From patent US20220257552A1, “METHODS OF PRESCREENING AND TREATING BREAST CANCERS WITH SELECTIVE ANDROGEN RECEPTOR MODULATORS” (priority 2021, published 2022)
